According to article PMC5568477 (Bioorganic & medicinal chemistry letters, 2017):

What follows are molecules tested against T1, olfactomedin domain of human myocilin (myoc-OLF) (Homo sapiens, UniProt Q99972) (assay: Thermal shift assay by differential scanning fluorimetry). Conditions: not given.
T1 sequence (Q99972 244-503 limits assumed): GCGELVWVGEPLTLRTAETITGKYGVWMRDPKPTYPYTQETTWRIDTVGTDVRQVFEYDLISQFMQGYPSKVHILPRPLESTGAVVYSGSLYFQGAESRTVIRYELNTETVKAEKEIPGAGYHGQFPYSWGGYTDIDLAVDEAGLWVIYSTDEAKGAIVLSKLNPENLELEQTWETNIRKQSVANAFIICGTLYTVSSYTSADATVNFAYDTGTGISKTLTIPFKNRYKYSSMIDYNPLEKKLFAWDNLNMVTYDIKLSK
Assay type: binding

Structure (SMILES)	Kd [µM]
Cc1cc(N(CCCl)CCCl)ccc1/C=N/NC(=O)Cc1cc(=O)oc2cc(O)ccc12 [NSC79688]	2

Same assay, conditions: initial round of screening; DSF, 5 μM protein; protein alone Tm 49.83

Structure (SMILES)	Tm [°C]
O=C(/C=C/c1ccc(O)c(O)c1)c1ccccc1O [NSC37433]	66.27
Cc1cc(N(CCCl)CCCl)ccc1/C=N/NC(=O)Cc1cc(=O)oc2cc(O)ccc12 [NSC79688]	51.43
O=C(Cn1ccc(=O)[nH]c1=O)Nc1ccc(C(=O)O)c(O)c1 [NSC93033]	51.49
Nc1nc(N)c(/N=N/c2ccc(C(=O)O)cc2)c(N)n1 [NSC408734]	51.61

Continued, values first:

Tm [°C]	Structure (SMILES)
51.33	CN(C)c1ccc(/C=C/C(=O)c2cc(Cl)ccc2O)cc1 [NSC11437]
50.74	COc1cc(C(=O)C(=O)c2ccc(O)c(OC)c2)ccc1O [NSC16722]
51.85	O=C1c2ccccc2C(=O)C1C(c1ccc([N+](=O)[O-])cc1)C1C(=O)c2ccccc2C1=O [NSC643148]

Same assay, conditions: second round best hit vs NSC37433

increase in the affinity compared to the best hit from the initial round (NSC37433)	Structure (SMILES)
~ 10,000 fold	COc1cccc(NC(S)=Nc2ccc(O)cc2)c1 [NSC201634]

Same assay, conditions: second round of screening, seeded with NSC37433

Tm [°C]	Structure (SMILES)
57.96	Cc1ccc(C(C)C)cc1NC(=O)Nc1ccc([N+](=O)[O-])cc1 [NSC46492]
83.79	COc1cccc(NC(S)=Nc2ccc(O)cc2)c1 [NSC201634]

Structure (SMILES)	Tm [°C]
O=C(Nc1ccc(Oc2ccc(NC(=O)Nc3ccc([N+](=O)[O-])cc3)cc2)cc1)Nc1ccc([N+](=O)[O-])cc1 [NSC80735]	62.86
